From article PMC4770715, “LIM kinase inhibitors disrupt mitotic microtubule organization and impair tumor cell proliferation” (Oncotarget, 2015)

What was measured:
Test in all cases: biochemical
Design in all cases: KINOMEscan active-site competition binding, percent of control (100 = no competition)
Details in all cases: competition binding, percent control
[1] = molecular target: T1, ABL1(H396P)-phosphorylated (Homo sapiens, UniProt P00519, H396P)
T1 construct: phosphorylated

ADCK3 = molecular target: T2, ADCK3 (Homo sapiens, UniProt Q8NI60)
T2 construct: gene COQ8A

AKT1 = AKT1 (Homo sapiens, UniProt P31749)
ALK = ALK (Homo sapiens, UniProt Q9UM73)
BIKE = molecular target: T3, BIKE (Homo sapiens, UniProt Q9NSY1)
T3 construct: gene BMP2K
T3 sequence (Q9NSY1 whole entry): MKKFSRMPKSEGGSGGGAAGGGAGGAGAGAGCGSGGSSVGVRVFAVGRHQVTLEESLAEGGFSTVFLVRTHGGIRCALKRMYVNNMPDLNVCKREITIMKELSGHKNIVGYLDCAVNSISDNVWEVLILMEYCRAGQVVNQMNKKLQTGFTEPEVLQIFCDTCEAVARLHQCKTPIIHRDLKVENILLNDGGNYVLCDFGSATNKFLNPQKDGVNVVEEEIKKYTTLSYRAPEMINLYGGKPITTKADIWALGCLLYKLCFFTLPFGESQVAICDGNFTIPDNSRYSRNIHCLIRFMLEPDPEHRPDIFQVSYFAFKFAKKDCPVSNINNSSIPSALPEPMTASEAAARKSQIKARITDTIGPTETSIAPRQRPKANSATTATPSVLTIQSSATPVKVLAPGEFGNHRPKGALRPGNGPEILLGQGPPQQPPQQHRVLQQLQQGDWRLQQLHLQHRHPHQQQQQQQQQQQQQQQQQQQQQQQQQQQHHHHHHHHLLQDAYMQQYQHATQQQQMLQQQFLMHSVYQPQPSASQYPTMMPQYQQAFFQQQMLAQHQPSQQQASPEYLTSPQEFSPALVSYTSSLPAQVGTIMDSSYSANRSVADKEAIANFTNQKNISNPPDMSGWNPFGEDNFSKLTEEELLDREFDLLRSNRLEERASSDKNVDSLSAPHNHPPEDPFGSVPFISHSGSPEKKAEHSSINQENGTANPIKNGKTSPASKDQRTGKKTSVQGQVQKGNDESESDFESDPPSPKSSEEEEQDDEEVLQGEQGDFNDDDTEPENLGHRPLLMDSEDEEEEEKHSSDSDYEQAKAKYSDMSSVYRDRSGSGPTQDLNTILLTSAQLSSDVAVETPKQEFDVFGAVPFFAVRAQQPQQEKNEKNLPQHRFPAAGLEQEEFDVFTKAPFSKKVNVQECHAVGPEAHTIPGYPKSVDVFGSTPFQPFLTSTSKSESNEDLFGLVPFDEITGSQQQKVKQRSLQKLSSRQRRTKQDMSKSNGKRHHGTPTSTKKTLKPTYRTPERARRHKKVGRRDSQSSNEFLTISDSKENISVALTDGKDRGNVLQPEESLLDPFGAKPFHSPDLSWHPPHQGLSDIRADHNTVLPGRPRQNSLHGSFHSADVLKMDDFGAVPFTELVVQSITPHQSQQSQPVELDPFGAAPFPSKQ

CAMK1 = CAMK1 (Homo sapiens, UniProt Q14012)
Sequence of CAMK1 (Q14012 whole entry): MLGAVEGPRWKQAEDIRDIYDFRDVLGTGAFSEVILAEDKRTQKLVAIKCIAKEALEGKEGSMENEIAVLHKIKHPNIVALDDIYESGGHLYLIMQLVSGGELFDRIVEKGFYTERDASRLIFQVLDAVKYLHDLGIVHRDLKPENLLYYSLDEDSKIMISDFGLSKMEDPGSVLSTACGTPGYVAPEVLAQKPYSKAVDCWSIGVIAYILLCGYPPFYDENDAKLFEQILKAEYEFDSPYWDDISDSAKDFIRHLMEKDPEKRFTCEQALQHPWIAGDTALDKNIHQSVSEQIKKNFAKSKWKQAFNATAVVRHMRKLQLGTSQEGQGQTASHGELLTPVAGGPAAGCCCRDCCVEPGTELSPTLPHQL

CDKL5 = CDKL5 (Homo sapiens, UniProt O76039)
Sequence of CDKL5 (O76039 whole entry): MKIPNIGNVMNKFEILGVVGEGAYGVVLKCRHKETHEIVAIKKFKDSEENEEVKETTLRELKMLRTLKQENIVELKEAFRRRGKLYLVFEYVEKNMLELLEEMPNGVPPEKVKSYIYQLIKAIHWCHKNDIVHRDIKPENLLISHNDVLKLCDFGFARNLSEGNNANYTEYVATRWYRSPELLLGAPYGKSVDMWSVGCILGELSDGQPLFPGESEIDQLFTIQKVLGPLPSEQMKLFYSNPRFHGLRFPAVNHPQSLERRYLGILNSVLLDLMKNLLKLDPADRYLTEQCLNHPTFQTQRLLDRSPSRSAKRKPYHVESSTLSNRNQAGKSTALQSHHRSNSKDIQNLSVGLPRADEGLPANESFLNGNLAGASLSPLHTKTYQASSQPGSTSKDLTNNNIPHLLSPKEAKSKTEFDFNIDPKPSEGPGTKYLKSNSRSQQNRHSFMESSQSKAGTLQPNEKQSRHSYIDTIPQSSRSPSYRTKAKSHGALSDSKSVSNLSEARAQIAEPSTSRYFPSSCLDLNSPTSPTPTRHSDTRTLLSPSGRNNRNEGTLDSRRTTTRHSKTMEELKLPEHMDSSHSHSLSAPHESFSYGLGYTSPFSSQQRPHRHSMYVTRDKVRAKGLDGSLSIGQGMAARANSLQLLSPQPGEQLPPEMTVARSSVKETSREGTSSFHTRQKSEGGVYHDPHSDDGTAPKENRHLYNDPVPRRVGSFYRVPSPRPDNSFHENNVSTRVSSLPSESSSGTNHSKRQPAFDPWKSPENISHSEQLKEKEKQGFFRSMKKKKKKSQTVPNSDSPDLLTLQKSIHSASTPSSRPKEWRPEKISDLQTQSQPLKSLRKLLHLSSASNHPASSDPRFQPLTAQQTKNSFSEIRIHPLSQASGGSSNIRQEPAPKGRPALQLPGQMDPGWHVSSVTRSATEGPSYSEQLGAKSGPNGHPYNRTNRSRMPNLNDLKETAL

DRAK1 = molecular target: T4, DRAK1 (Homo sapiens, UniProt Q9UEE5)
T4 construct: gene STK17A

EPHB6 = EPHB6 (Homo sapiens, UniProt O15197)
ERK3 = molecular target: T5, ERK3 (Homo sapiens, UniProt Q16659)
T5 construct: gene MAPK6
T5 sequence (Q16659 whole entry): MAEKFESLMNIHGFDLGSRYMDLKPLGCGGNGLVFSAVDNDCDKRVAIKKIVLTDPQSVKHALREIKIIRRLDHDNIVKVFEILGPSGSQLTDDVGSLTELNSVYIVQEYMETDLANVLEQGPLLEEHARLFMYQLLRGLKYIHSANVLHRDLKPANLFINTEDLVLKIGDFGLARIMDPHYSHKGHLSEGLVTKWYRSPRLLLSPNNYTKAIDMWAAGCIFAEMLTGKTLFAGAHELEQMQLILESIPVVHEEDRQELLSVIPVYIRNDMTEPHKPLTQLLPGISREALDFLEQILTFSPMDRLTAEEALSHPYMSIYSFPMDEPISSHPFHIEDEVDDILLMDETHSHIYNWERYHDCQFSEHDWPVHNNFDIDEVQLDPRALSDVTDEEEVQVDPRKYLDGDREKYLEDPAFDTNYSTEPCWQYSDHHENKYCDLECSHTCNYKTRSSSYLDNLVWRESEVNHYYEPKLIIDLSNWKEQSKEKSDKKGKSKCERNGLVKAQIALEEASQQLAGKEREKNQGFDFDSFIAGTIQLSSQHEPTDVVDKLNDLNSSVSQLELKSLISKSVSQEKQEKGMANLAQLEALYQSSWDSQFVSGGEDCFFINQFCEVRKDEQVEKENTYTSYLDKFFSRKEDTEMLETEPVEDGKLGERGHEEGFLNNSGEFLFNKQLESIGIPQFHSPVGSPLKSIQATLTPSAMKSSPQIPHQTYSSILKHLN

FES = FES (Homo sapiens, UniProt P07332)
Sequence of FES (P07332 whole entry): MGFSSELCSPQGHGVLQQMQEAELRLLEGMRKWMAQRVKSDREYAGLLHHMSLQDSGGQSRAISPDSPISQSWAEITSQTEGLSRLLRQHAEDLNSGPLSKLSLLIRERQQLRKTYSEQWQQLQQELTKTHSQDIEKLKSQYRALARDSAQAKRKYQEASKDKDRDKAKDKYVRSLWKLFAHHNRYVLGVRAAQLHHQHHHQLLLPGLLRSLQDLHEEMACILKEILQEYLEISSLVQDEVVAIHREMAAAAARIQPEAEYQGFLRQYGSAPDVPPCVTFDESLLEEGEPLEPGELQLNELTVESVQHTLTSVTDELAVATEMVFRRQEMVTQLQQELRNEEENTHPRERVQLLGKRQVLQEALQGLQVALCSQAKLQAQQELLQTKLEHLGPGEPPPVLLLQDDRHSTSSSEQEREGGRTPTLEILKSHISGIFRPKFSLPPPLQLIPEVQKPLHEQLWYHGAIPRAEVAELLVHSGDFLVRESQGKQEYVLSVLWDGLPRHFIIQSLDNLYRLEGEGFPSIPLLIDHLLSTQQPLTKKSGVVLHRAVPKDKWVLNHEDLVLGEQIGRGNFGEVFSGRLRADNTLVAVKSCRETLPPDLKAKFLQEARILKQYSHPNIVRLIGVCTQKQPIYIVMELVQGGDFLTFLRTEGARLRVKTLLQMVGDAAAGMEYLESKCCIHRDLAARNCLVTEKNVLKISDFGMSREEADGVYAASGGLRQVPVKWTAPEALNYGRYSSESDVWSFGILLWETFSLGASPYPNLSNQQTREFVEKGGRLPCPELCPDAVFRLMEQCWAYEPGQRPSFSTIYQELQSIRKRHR

IGF1R = IGF1R (Homo sapiens, UniProt P08069)
KIT(L576P) = KIT(L576P) (Homo sapiens, UniProt P10721, L576P)
MAP4K2 = MAP4K2 (Homo sapiens, UniProt Q12851)
MAPKAPK5 = MAPKAPK5 (Homo sapiens, UniProt Q8IW41)
MARK1 = MARK1 (Homo sapiens, UniProt Q9P0L2)
Sequence of MARK1 (Q9P0L2 whole entry): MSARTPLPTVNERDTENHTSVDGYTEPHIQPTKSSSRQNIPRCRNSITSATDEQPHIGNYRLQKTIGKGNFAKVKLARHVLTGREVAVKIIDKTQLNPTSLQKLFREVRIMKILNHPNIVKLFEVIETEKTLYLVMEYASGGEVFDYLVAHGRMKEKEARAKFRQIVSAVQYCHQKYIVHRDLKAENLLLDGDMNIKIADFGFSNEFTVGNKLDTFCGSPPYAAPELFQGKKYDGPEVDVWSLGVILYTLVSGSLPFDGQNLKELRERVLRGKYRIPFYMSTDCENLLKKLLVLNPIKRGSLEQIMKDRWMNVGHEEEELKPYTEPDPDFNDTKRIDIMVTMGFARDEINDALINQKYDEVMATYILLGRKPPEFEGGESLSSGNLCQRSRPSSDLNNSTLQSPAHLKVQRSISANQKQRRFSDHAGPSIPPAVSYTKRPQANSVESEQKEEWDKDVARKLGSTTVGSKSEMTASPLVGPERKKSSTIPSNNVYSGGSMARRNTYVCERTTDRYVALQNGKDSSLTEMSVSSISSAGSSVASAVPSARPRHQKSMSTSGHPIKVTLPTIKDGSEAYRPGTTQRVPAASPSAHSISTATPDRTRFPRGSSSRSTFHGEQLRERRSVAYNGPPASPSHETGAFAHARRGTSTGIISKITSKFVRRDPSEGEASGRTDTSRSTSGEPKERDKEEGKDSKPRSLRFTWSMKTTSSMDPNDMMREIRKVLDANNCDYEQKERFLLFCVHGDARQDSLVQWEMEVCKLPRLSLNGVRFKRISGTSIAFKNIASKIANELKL

MEK4 = molecular target: T6, MEK4 (Homo sapiens, UniProt P45985)
T6 construct: gene MAP2K4

PAK3 = PAK3 (Homo sapiens, UniProt O75914)
PCTK3 = molecular target: T7, PCTK3 (Homo sapiens, UniProt Q07002)
T7 construct: gene CDK18

PIK3CA(E545A) = PIK3CA(E545A) (Homo sapiens, UniProt P42336, E545A)
TLK1 = TLK1 (Homo sapiens, UniProt Q9UKI8)
ULK1 = ULK1 (Homo sapiens, UniProt O75385)
p38-alpha = molecular target: T8, p38-alpha (Homo sapiens, UniProt Q16539)
T8 construct: gene MAPK14

## COc1ccc(-c2cnccc2-c2cnc(NC(=O)C(C)C)s2)c(C(F)(F)F)c1 [CRT0105446, N-{5-[3-(4-Methoxy-2-trifluoromethyl-phenyl)-pyridin-4-yl]-hiazol-2-yl}-isobutyramide]
[1]
  remaining binding at 10 µM: 82%
ADCK3
  remaining binding at 10 µM: 98%
AKT1
  remaining binding at 10 µM: 100%
ALK
  remaining binding at 10 µM: 89%
BIKE
  remaining binding at 10 µM: 100%
CAMK1
  remaining binding at 10 µM: 62%
CDKL5
  remaining binding at 10 µM: 100%
DRAK1
  remaining binding at 10 µM: 81%
EPHB6
  remaining binding at 10 µM: 86%
ERK3
  remaining binding at 10 µM: 100%
FES
  remaining binding at 10 µM: 87%
IGF1R
  remaining binding at 10 µM: 100%
KIT(L576P)
  remaining binding at 10 µM: 36%
MAP4K2
  remaining binding at 10 µM: 100%
MAPKAPK5
  remaining binding at 10 µM: 95%
MARK1
  remaining binding at 10 µM: 87%
MEK4
  remaining binding at 10 µM: 82%
PAK3
  remaining binding at 10 µM: 4.6%
PCTK3
  remaining binding at 10 µM: 7.7%
PIK3CA(E545A)
  remaining binding at 10 µM: 100%
TLK1
  remaining binding at 10 µM: 100%
ULK1
  remaining binding at 10 µM: 100%
p38-alpha
  remaining binding at 10 µM: 93%

## Cc1ccc(-c2cnccc2-c2cnc(Nc3ccc(O)cc3)s2)c(Cl)c1 [CRT0105950, 4-{5-[3-(2-Chloro-4-methyl-phenyl)-pyridin-4-yl]-thiazol-2-ylamino}-phenol]
[1]
  remaining binding at 10 µM: 72%
ADCK3
  remaining binding at 10 µM: 56%
AKT1
  remaining binding at 10 µM: 100%
ALK
  remaining binding at 10 µM: 20%
BIKE
  remaining binding at 10 µM: 36%
CAMK1
  remaining binding at 10 µM: 9.4%
CDKL5
  remaining binding at 10 µM: 99%
DRAK1
  remaining binding at 10 µM: 100%
EPHB6
  remaining binding at 10 µM: 17%
ERK3
  remaining binding at 10 µM: 97%
FES
  remaining binding at 10 µM: 93%
IGF1R
  remaining binding at 10 µM: 3.6%
KIT(L576P)
  remaining binding at 10 µM: 0.4%
MAP4K2
  remaining binding at 10 µM: 81%
MAPKAPK5
  remaining binding at 10 µM: 97%
MARK1
  remaining binding at 10 µM: 5.8%
MEK4
  remaining binding at 10 µM: 1.8%
PAK3
  remaining binding at 10 µM: 4.1%
PCTK3
  remaining binding at 10 µM: 68%
PIK3CA(E545A)
  remaining binding at 10 µM: 100%
TLK1
  remaining binding at 10 µM: 62%
ULK1
  remaining binding at 10 µM: 38%
p38-alpha
  remaining binding at 10 µM: 87%
